According to patent publication US8940705B2, “Method of treating disease and selectively modulating transcriptional regulation by a glucocorticoid receptor by administering aclacinomycin and dexamethasone” (The Regents of the University of California, priority 2009, dated 2015):

Experiments:
GR [1] = biological target: T1, GR (Rattus norvegicus, UniProt P06536); experiment: Luciferase assays, GR-responsive reporters, U2OS-GR cells; format: cell-based; conditions: pENaC-luc and pSV40-rl, with dex
T1 construct: expressed in transfected cells; host or cells: U2OS-GR
T1 sequence (P06536 1-795): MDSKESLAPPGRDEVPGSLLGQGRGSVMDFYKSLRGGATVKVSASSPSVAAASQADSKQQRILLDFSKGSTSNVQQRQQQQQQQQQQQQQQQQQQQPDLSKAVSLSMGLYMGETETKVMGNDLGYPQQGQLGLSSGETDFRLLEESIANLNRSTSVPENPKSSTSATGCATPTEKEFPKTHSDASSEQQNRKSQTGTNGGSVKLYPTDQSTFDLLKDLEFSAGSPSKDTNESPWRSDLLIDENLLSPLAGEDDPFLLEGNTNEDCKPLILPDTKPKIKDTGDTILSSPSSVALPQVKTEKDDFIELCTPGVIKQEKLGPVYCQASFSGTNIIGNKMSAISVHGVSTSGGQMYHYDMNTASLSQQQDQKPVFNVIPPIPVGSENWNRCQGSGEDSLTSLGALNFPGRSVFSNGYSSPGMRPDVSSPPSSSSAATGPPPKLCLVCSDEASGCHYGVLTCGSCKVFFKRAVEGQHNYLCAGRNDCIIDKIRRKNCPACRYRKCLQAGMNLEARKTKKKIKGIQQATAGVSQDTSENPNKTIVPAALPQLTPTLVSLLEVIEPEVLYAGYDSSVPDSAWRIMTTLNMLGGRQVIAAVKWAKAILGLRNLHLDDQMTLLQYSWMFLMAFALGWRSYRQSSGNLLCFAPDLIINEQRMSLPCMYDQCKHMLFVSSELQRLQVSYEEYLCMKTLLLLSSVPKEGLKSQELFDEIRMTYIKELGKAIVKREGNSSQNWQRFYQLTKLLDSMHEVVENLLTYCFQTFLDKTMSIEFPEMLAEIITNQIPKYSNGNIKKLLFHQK
Description: (§1) Transfections. The day prior to transfection, ˜3×10^5 cells were plated in 6-well dishes. Transfections used Lipofectamine 2000 (Invitrogen). 4 μg of total plasmid DNA were used for each transfection. For A549 cells, 500 μL of DNA/lipofectamine complex was added to 1.5 ml of DMEM with pen/strep and 5% FBS. For U2OS cells, 500 μl of DNA/lipofectamine complex was added to 1.5 ml of Optimem. After 3-4 hours of incubation, media was replaced with standard growth media.
(§2) Luciferase assays. Luciferase assays used the Promega Dual-Luciferase Reporter system. Briefly, cells were transfected with various firefly luciferase plasmids and pSV40-RL at a ratio of 10:1. The day after transfection, cells were split into 96-well dishes and treated with dex and various drugs. Cells were harvested in 50 μl 1XPLB (Promega) 12-18 hr after drug treatment and luciferase assays were performed on 10 μl of lysate. Luminscence was detected using an Ultra Evolution plate reader (Tecan).

GR [2] = biological target: T2, GR (Homo sapiens, UniProt P04150); experiment: qPCR of endogenous GR target genes, A549 cells; format: cell-based; design: endogenous in cells; host or cells: A549; conditions: with dex, RPL19 reference
T2 sequence (P04150 1-777): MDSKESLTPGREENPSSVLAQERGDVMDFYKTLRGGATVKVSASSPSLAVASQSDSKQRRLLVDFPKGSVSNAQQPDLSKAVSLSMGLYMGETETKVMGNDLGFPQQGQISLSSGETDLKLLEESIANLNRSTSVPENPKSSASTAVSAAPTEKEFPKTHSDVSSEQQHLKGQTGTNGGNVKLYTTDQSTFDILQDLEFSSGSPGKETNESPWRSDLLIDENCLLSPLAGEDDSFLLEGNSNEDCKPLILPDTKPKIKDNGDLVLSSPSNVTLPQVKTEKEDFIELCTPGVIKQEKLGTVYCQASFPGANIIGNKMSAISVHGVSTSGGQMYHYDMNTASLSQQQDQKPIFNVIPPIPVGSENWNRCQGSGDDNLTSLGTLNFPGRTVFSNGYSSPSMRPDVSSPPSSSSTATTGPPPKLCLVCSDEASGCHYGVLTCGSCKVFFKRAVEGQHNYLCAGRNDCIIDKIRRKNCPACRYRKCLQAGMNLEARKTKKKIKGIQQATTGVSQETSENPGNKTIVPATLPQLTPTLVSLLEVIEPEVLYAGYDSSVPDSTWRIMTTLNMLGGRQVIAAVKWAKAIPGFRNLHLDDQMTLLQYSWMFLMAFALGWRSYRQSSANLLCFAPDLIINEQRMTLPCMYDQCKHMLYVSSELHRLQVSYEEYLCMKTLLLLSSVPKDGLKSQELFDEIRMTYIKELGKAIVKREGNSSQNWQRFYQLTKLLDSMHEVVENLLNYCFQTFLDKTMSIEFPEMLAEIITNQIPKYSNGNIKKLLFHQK
Text: (§3) Quantitative PCR. Total RNA isolation used Trizol and Pure Link (Invitrogen). […] Rpl19 expression was used for data normalization.

GR [3] = biological target: T2, GR; experiment: Multi-promoter fluorescent protein reporter compound screen for GR modulators; format: cell-based; design: endogenous in cells; host or cells: A549; conditions: A549 cells, library compounds 2.5 μM with dex 100 nM; reporter fluorescence relative to plate mean
Description: Compound Screen. A549 cells were transfected with an equal mixture of pENaC-CFP, pGILZ-YFP, pFKBP5-OFP (1.3 μg each), or with pSV40-ChFP (4 μg). The next day, cells were mixed (˜1.8×10^4 of the cells triple-transfected with pENaC-CFP, pGILZ-YFP, pFKBP5-OFP; ˜2×10^3 cells transfected with pSV40-ChFP) and replated into 96 well plates (Costar 3603). 2 hours later, library compounds (2.5 μM) and dex (100 nM) were added using a Biomek robot. The following day, cells were fixed for 4 minutes in 4% paraformaldehyde and fluorescence was measured sequentially for each reporter using a Safire plate reader (Tecan). Hits were scored based on the mean and standard deviation (s.d.) of the experimental wells on each plate. Criteria for a hit were if one reporter was more than 1.5×s.d. from the mean in duplicate, or if two reporters were more than 0.8×s.d. from the mean in duplicate. If the control SV40-ChFP was more than 2×s.d. from the mean in a single plate, or 0.8×s.d. in duplicate plates (in the same direction as the GR reporters), the well was not scored as a hit.
We used the system of Example 1 to screen a library of 1040 natural products and FDA-approved drugs for modulators of GR signaling (Abbott, A. Nature 417:109). The screen design is outlined in FIG. 2. The pENaC-CFP, pGILZ-YFP, and pFKBP5-OFP reporters indicated GR signaling, while pSV40-mCh, an internal control, excluded non-specific transcription inhibitors and toxins. We screened the library in duplicate in the presence of saturating dex (100 nM). Z′, a function that reflects the ability to discriminate between control and experimental wells (Zhang, J. H. et al., J Biomol Screen 4:67-73 (1999)), was determined for dex treatment of each GR reporter. The Z′ values were: Z′(ENAC-CFP)=0.68; Z′(GILZ-YFP)=0.64; and Z′(FKBP5-OFP)=0.66. These indicate that the screen should efficiently identify compounds that increase or decrease fluorescence from any of the three experimental promoters (Zhang, J. H. et al., J Biomol Screen 4:67-73 (1999)).

GR [4] = biological target: T2, GR; experiment: Luciferase assays, GR-responsive reporters, A549 cells; format: cell-based; design: endogenous in cells; host or cells: A549; conditions: for GR activity (GR-mediated induction of pENaC-luc reporter): pENaC-luc and pSV40-rl; for Dose dependent: whether the drug acted dose-dependently on GR-luciferase reporters
Description: as §1, §2

[5] = tested on: genes that are regulated by glucocorticoids; experiment: In vivo screening: qPCR of glucocorticoid-regulated genes in mouse tissues; conditions: mice, 7.5 mg/kg aclacinomycin, one hour later 2.5 mg/kg dexamethasone, tissues after 6 hours
Description: Mice were injected with 7.5 mg/kg aclacinomycin. One hour later, mice were injected with 2.5 mg/kg dexamethasone. After 6 hours, lungs, liver, heart and skeletal muscle were harvested for RNA preparation. qPCR was performed on isolated RNA from these tissues to analyze expression levels of various genes that are regulated by glucocorticoids.

androgen receptor (AR) = androgen receptor (AR) (Homo sapiens, UniProt P10275); conditions: Hieronymus et al., Cancer Cell 10:321-330 (2006); cited from earlier work
androgen receptor (AR), sequence (P10275 whole entry, species assumed): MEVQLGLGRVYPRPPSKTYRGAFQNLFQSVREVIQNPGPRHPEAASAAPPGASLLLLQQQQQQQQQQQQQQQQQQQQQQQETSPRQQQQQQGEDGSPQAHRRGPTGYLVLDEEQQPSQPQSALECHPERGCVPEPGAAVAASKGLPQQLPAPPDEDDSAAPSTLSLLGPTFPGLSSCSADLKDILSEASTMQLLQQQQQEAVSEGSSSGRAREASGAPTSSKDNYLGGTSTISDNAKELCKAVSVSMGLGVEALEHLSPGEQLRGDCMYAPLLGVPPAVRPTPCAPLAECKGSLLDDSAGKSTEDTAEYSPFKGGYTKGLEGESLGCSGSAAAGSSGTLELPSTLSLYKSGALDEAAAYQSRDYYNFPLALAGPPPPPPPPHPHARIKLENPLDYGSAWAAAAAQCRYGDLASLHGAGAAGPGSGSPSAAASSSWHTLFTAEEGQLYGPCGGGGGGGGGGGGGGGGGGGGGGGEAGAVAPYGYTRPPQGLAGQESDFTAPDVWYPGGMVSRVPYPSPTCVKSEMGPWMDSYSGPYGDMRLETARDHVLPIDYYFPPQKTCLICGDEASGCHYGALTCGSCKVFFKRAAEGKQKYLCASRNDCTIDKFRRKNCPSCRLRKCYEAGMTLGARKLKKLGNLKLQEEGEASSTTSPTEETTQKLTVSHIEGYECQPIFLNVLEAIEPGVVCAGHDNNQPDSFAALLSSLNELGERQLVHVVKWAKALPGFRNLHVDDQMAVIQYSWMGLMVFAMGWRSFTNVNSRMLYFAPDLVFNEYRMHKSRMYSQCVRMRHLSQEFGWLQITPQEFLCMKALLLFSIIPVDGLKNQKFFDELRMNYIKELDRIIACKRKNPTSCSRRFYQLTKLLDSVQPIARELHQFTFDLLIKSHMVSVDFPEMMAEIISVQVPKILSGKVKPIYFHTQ

GR [6] = experiment: qPCR of endogenous GR target genes, cell line not distinguished (FIG. 4B, 5D); format: cell-based; conditions: with dex, 24 hr
Text: as §3

RNA synthesis = conditions: Long et al., Mol Pharmacol 22:152-7 (1982); cited from earlier work

SMILES | GR activity (luciferase reporter) (GR [1]) | expression of endogenous GR target genes (relative mRNA, qPCR) (GR [2]) | ENaC-CFP (GR [3]) | FKBP5-OFP (GR [3]) | GILZ-YFP (GR [3]) | pSV40-luc activity (GR [4]; A549 cells, low doses of Acl, dex-unresponsive reporter) | GR activity (GR-mediated induction of pENaC-luc reporter) (GR [4]; A549 cells, with dex) | effect on GR-dependent reporter pENaC-luc compared with GR-independent constitutive reporter pSV40-rl (GR [4]; A549 cells, with dex) | Dose dependent (GR [4]) | activation of FKBP5 by dexamethasone ([5]; liver and lung (FIGS. 6-7)) | activation of KLF15 by dexamethasone ([5]; lung (FIG. 8)) | repression of the cytokine CCL2 by dexamethasone ([5]; lung (FIG. 9)) | androgen receptor (AR) signaling (androgen receptor (AR)) | Dose dependent (GR [4]; listed as pararosaniline) | expression of endogenous GR target genes (qPCR), overall (GR [6]) | induction of endogenous ENaC (qPCR) (GR [6]) | IC50 for inhibition of RNA synthesis, compared with aclacinomycin (RNA synthesis)
CC[C@@]1(O)C[C@H](O[C@H]2C[C@H](N(C)C)[C@H](O[C@H]3C[C@H](O)[C@H](O[C@H]4CCC(=O)[C@H](C)O4)[C@H](C)O3)[C@H](C)O2)c2c(cc3c(c2O)C(=O)c2c(O)cccc2C3=O)[C@H]1C(=O)OC [Aclacinomycin] | inhibited GR | inhibited GR at the tested promoters | ↓↓↓^b (more than 2 standard deviations (s.d.) less than the mean (↓↓↓)) | ↓↓↓ (more than 2 standard deviations (s.d.) less than the mean (↓↓↓)) | ↓↓↓ (more than 2 standard deviations (s.d.) less than the mean (↓↓↓)) | Increases | antagonists of GR | reduced GR activation of pENaC-luc much more than the constitutive reporter | yes | blocked the activation | blocked the activation | did not inhibit repression | – | – | – | – | –
N=C1C=CC(=C(c2ccc(N)cc2)c2ccc(N)cc2)C=C1 [Pararosaniline] | – | – | ↓ (0.8 to 2 s.d. less than the mean (↓)) | No effect | ↓ (0.8 to 2 s.d. less than the mean (↓)) | – | – | – | yes | – | – | – | inhibit | dose dependent effects | selectively modulated endogenous GR target genes | selectively inhibited the induction of endogenous ENaC transcription in comparison to FKBP5 | –
CC[C@@]1(O)C[C@H](O[C@H]2C[C@H](N(C)C)[C@H](O[C@H]3C[C@H](O)[C@H](O[C@H]4C[C@H](O)[C@H](O)[C@H](C)O4)[C@H](C)O3)[C@H](C)O2)c2c(cc3c(c2O)C(=O)c2c(O)ccc(O)c2C3=O)[C@H]1C(=O)OC [marcellomycin] | – | – | – | – | – | – | no impact on GR-mediated induction of the reporter | – | – | – | – | – | – | – | – | – | similar
